Reference: patent US20190388377A1, “COMPOSITIONS AND METHODS FOR THE TREATMENT OF LIVER DISEASES AND DISORDERS” (AXCELLA HEALTH INC., priority 2018, published 2019)

Legend:
[1] = test system: primary human hepatocytes; assay: Intracellular triglyceride level after 72 h, colorimetric assay, Example 3; format: cell-based
Protocol: On day 2, cells were washed twice with DPBS 1× (Gibco) and maintained in: • a. Amino acid-free WEM (US Biologicals) supplemented with 11 mM Glucose (Sigma), 0.272 mM Sodium Pyruvate (Sigma), 1× P/S (Gibco) and containing a defined custom amino acid concentration based on the mean physiological concentrations in blood (1× HMDB WEM (−) supplemental amino acids); or • b. The same media described above 1×HMDB WEM (+) supplemental amino acids treatment dose at a 30× of HMDB amino acid concentration. Cells were maintained in the defined amino acids media (a. & b.) for 24 hours at 37° C., 5% CO2. Co-Treatment with Free Fatty Acids and Various Amino Acids Supplemental Treatments
After 24 h pre-treatment, cells maintained in the same media (a. & b.) described above 1×HMDB±supplemental amino acids were now exposed to free fatty acids (FFA) at 250 uM with a ratio of 2:1 (Oleate:Palmitate) supplemented with TNF-α (Thermofisher) at 1 ng/ml or vehicle. Cells with the FFAs+TNFα mixture±amino acids treatments were incubated for 72 hours at 37° C., 5% CO2 with a media change after the first 24 hours.
After 72 hours, cells were washed once with cold PBS 1× (Gibco), scrapped off and collected into 75 ul of standard diluent (Cayman). Collected cells were vortexed for 1 min at a 2500 rpm speed followed by two times sonication (Elmasonic sonicator) for 1 min each. Supernatants were collected for triglyceride analysis after centrifugation at 1000 rpm for 10 min at 4° C. Intracellular triglyceride level was assessed using triglyceride colorimetric assay kit (Cayman) and following manufacturer's recommendations. Data was normalized to the total amount of protein using Bicinchoninic Acid Protein Assay Kit (Sigma). Data is reported as median fold change from FFAs+TNFα condition, statistical analysis was done using t-Test.

CCL18 = CCL18 secretion by ELISA, IL-4-treated primary human M2 macrophages, Example 5; format: cell-based; settings: IL-4 1 ng/ml, 5 mM
Protocol: On day 0, primary human PBMC derived macrophages were seeded in Dulbecco's Modified Eagle Medium (DMEM) (Gibco) supplemented with penicillin-streptomycin (Hyclone) and 10% heat inactivated fetal bovine serum (HI-FBS) (Atlanta Bio) into 96-well microplates (ThermoFisher) and incubated overnight at 37° C., 5% CO2. On day 1, cells were washed once with DPBS and then treated with: • a. Amino acid free DMEM (US Biologicals) containing a defined custom amino acid concentration based on the mean physiological concentrations in blood based on values published in the Human Metabolome Database (HMDB), with 6 mM glucose, 1 mM sodium pyruvate, 10 mM HEPES, penicillin-streptomycin; or • b. The same medium described above with one amino acid or amino acid combination at various concentrations
On day 2, cells were treated with the same mediums described above supplemented with recombinant human interleukin-4 (1 ng/ml of IL-4; Peprotech). […]
On day 3, the supernatant was collected and immediately frozen in −80° C. freezer. Cells were washed once with DPBS and viability was assessed using the WST-8 Cell Proliferation Cytotoxicity Assay (Dojindo) according to manufacturer-supplied protocol. […] Protein levels in supernatant samples were analyzed by ELISA for CCL18 using commercially available kits (R&D Systems) according to manufacturer-supplied protocols.

[2] = test system: alpha smooth muscle actin (αSMA); assay: HSC activation by alpha SMA immunostaining, TGFβ1-stimulated hepatic stellate cells; format: cell-based, human
Protocol: Primary human hepatic stellate cells were obtained from Samsara Sciences. Cells from three different donors were grown in Complete HSC Medium to ˜80% confluence in T75 or T150 flasks below passage 10 were seeded into sterile, collagen I coated, 96-well optical plastic microplates (ThermoScientific) and incubated overnight at 37° C., 5% CO2 in a humidified incubator in DMEM with 2% Fetal Bovine Serum and 1% Antimycotic. […] After 24 hours of stimulus, supernatant was removed and used to measure Procollagen III and cells were then washed and fixed with 4% paraformaldehyde for further staining.
Procollagen III, an important biomarker of fibrosis was measured by ELISA (Human PCIII Elisa Kit, G-Biosciences) following the manufacturer's recommendations. Fixed cells with 4% paraformaldehyde were permeabilized with 0.1% Triton X-100 then immunostained for alpha SMA and labeled for EdU incorporation.
Cells were imaged using ImageXpress micro confocal high content imager (Molecular Devices). […] Image analysis was performed using MetaXpress version 6.2.3.733 (Molecular Devices).
Fixed cells immunostained for alpha smooth muscle actin (αSMA) were analyzed and stained area was normalized to total nuclei count. Fold change were calculated relative to the baseline amino acid (1×HMDB) condition stimulated with 3 ng/mL TGFβ1.

## CC(=O)N[C@@H](CS)C(=O)O [Nac, N-acetylcysteine]
[1]; FFA + TNF, 72 h, two donors, AA Conc 1X, Nac/Car 7.5 mM
  Triglyceride Level relative to the baseline FFA + TNF, Median: −1.172
[1]; FFAs+TNFα, two healthy donors
  triglyceride level (in words): reduces triglyceride level but the effect was less pronounced than the combinations described previously
CCL18
  CCL18 Median Fold Change from Vehicle (log2): 0.387 log2
[2]
  alpha SMA stained area (in words): reduced the alpha SMA stained area at a high level
